From ChEMBL document CHEMBL1201862, “PubChem BioAssay data set” (2004)
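Values below derive from 48-hour exposures of cells grown in 96-well plates, with endpoints linearly interpolated between the two concentrations bracketing the appropriate inhibition level. GI50 = concentration required for 50% inhibition of growth.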 Calls of active or inactive are those of the source. No stated cut-off is given here; in the data, active = GI50 up to about 1.1 µM and inactive = higher.

Key:
Assay in all cases: NCI tumour cell line growth inhibition, 48 h
786-0 = system: 786-0
A498 = system: A498
ACHN = system: ACHN
CAKI-1 = system: CAKI-1
DLD-1 = system: DLD-1
HCC 2998 = system: HCC 2998
HCT-116 = system: HCT-116
HL-60 = system: HL-60
HOP-62 = system: HOP-62
HT-29 = system: HT-29
IGROV-1 = system: IGROV-1
K562 = system: K562
M14 = system: M14
NCI-H460 = system: NCI-H460
OVCAR-3 = system: OVCAR-3
SF-539 = system: SF-539
SK-MEL-2 = system: SK-MEL-2
SNB-75 = system: SNB-75
TK-10 = system: TK-10
MDA-N = system: MDA-N

Compound | GI50 (786-0) | GI50 (A498) | GI50 (ACHN) | GI50 (CAKI-1) | GI50 (DLD-1) | GI50 (HCC 2998) | GI50 (HCT-116) | GI50 (HL-60) | GI50 (HOP-62) | GI50 (HT-29) | GI50 (IGROV-1) | GI50 (K562) | GI50 (M14) | GI50 (NCI-H460) | GI50 (OVCAR-3) | GI50 (SF-539) | GI50 (SK-MEL-2) | GI50 (SNB-75) | GI50 (TK-10) | GI50 (MDA-N)
Cc1ccc2oc(=O)cc(CC(=O)O)c2c1 | > 100 µM (inactive) | > 100 µM (inactive) | > 100 µM (inactive) | > 100 µM (inactive) | > 100 µM (inactive) | > 100 µM (inactive) | > 100 µM (inactive) | > 100 µM (inactive) | > 100 µM (inactive) | > 100 µM (inactive) | > 100 µM (inactive) | > 100 µM (inactive) | > 100 µM (inactive) | > 100 µM (inactive) | > 100 µM (inactive) | > 100 µM (inactive) | > 100 µM (inactive) | > 100 µM (inactive) | > 100 µM (inactive) | –
C/C(=N\N)C(CN1CCOCC1)C(c1ccccc1)c1c(O)c2ccccc2oc1=O (configuration not stated) | > 95.1 µM (inactive) | 69.8 µM (inactive) | > 100 µM (inactive) | > 100 µM (inactive) | > 100 µM (inactive) | > 100 µM (inactive) | > 100 µM (inactive) | 30.4 µM (inactive) | > 91 µM (inactive) | > 100 µM (inactive) | > 100 µM (inactive) | 47.6 µM (inactive) | > 76.6 µM (inactive) | > 80.7 µM (inactive) | > 61.4 µM (inactive) | > 100 µM (inactive) | > 100 µM (inactive) | 42.9 µM (inactive) | > 100 µM (inactive) | > 100 µM (inactive)
CC(C)(C)NNc1c([N+](=O)[O-])cnn(-c2ccccc2)c1=O | 6.24 µM (inactive) | 29.8 µM (inactive) | 8.71 µM (inactive) | 8.69 µM (inactive) | 4.56 µM (inactive) | 7.14 µM (inactive) | 2.46 µM (inactive) | 1.34 µM (inactive) | 8.63 µM (inactive) | 2.84 µM (inactive) | 20.4 µM (inactive) | 0.942 µM (active) | 2.17 µM (inactive) | 7.36 µM (inactive) | 2.59 µM (inactive) | 13.2 µM (inactive) | > 10 µM (inactive) | 9.86 µM (inactive) | 22 µM (inactive) | –
Cc1nc(-n2nc(-c3ccccc3)cc2-c2ccccc2)sc1C(=O)/C=C/c1ccc([N+](=O)[O-])cc1 | 13 µM (inactive) | > 43.8 µM (inactive) | 26.5 µM (inactive) | 24.9 µM (inactive) | 15.3 µM (inactive) | 16.2 µM (inactive) | 12.7 µM (inactive) | 17.2 µM (inactive) | 20.1 µM (inactive) | 16.3 µM (inactive) | 20.5 µM (inactive) | 14.2 µM (inactive) | 27.6 µM (inactive) | 25.2 µM (inactive) | 10.4 µM (inactive) | 11.2 µM (inactive) | 43.1 µM (inactive) | 2.69 µM (inactive) | 41.5 µM (inactive) | 19.2 µM (inactive)
NC(=O)OCC(COc1ccc(Cl)cc1)OC(=O)c1ccccc1Cl (configuration not stated) | 19.4 µM (inactive) | > 100 µM (inactive) | 31.6 µM (inactive) | 26.5 µM (inactive) | 18.5 µM (inactive) | 23.8 µM (inactive) | 17 µM (inactive) | 21.9 µM (inactive) | 20.9 µM (inactive) | 17.6 µM (inactive) | 25.5 µM (inactive) | 20.7 µM (inactive) | 18.7 µM (inactive) | 16.8 µM (inactive) | 20.3 µM (inactive) | 19.1 µM (inactive) | 17.3 µM (inactive) | 41.7 µM (inactive) | 28.8 µM (inactive) | –
O=P(NC12CC3CC(CC(C3)C1)C2)(N1CC1)N1CC1 | 23.2 µM (inactive) | 45.5 µM (inactive) | 4.67 µM (inactive) | 1.82 µM (inactive) | 80.5 µM (inactive) | > 100 µM (inactive) | 43.7 µM (inactive) | 3.09 µM (inactive) | 12.8 µM (inactive) | 21.2 µM (inactive) | > 92.9 µM (inactive) | 37.6 µM (inactive) | 37.1 µM (inactive) | 2.46 µM (inactive) | > 86.1 µM (inactive) | 15.9 µM (inactive) | > 100 µM (inactive) | 22.4 µM (inactive) | > 100 µM (inactive) | > 100 µM (inactive)
